Assay results taken from patent publication US11155517B2, “4-substituted phenylamine derivatives and their use to protect crops by fighting undesired phytopathogenic micoorganisms” (PI INDUSTRIES LTD., priority 2016, dated 2021).
Counter-ions that a name gives are not always drawn.

Tests used:
Assay type in all cases: cell-based
Pyricularia oryzae = experiment: microbe, parasite or virus in culture; conditions: 168 h, read-out: % control compared to the untreated check (radial growth)
Rhizoctonia solani = Rhizoctonia solani (rice sheath blight/potato black scurf) in vitro test, radial growth on Potato Dextrose Agar; conditions: 168 h, 300 ppm, seven days, 25° C., read-out: % control compared to the untreated check (radial growth)
Alternaria solani = Alternaria solani (early blight of tomato/potato) in vitro test, radial growth on Potato Dextrose Agar; conditions: 168 h, 300 ppm, seven days, 25° C., read-out: % control compared to the untreated check (radial growth)
Botrytis cinerea = Botrytis cinerea (gray mold) in vitro test, radial growth on Potato Dextrose Agar; conditions: 168 h, 300 ppm, seven days, 22° C., read-out: % (control) compared to the untreated check (radial growth)

| SMILES | inhibition of growth at 300 ppm (Pyricularia oryzae) | inhibition of growth at 300 ppm (Rhizoctonia solani) | inhibition of growth at 300 ppm (Alternaria solani) | inhibition of growth at 300 ppm (Botrytis cinerea) |
| --- | --- | --- | --- | --- |
| Cc1cc(N=CN2CCOCC2)c(Cl)cc1Cc1cccc(F)c1 [Compound 38, N-(2-chloro-4-(3-fluorobenzyl)-5-methylphenyl)-1-morpholinomethanimine] | > 75% | – | – | – |
| CON(C)C=Nc1cc(C)c(Cc2ccccc2F)cc1C [Compound 61, N′-(4-(2-fluorobenzyl)-2,5-dimethylphenyl)-N-methoxy-N-methylformimidamide] | > 75% | > 80% | > 75% | – |
| Cc1cc(N=CNC#N)c(C)cc1Cc1ccccc1Cl [Compound 65, N′-(4-(2-chlorobenzyl)-2,5-dimethylphenyl)-N-cyanoformimidamide] | – | – | – | > 80% |
| CCN(C)C=Nc1c(C)cc(C(F)(F)c2ccccc2)c(C)c1I [Compound 73, N′-(4-(difluoro(phenyl)methyl)-2-iodo-3,6-dimethylphenyl)-N-ethyl-N-methylformimidamide] | > 75% | – | – | – |
| Cc1cc(N=CN(CC2CC2)C(C)C)c(C)cc1Cc1ccccc1F [Compound 88, N-(cyclopropylmethyl)-N′-(4-(2-fluorobenzyl)-2,5-dimethylphenyl)-N-isopropylformimidamide] | > 75% | > 80% | > 75% | > 80% |
| Cc1cc(N=CN(CC2CC2)C(C)C)c(C)cc1Cc1ccccc1Cl [Compound 89, N′-(4-(2-chlorobenzyl)-2,5-dimethylphenyl)-N-(cyclopropylmethyl)-N-isopropylformimidamide] | > 75% | > 80% | > 75% | > 80% |
| CCN(C)C=Nc1cc(C)c(Cc2cccc(F)c2Cl)cc1Cl [Compound 125, N′-(2-chloro-4-(2-chloro-3-fluorobenzyl)-5-methylphenyl)-N-ethyl-N-methylformimidamide] | > 75% | – | > 75% | – |
| CCN(C)C=Nc1cc(C)c(Cc2cc(C(F)(F)F)cc(Cl)c2F)cc1Cl [Compound 126, N′-(2-chloro-4-(3-chloro-2-fluoro-5-(trifluoromethyl)benzyl)-5-methylphenyl)-N-ethyl-N-methylformimidamide] | > 75% | – | > 75% | – |
| CCN(C)C=Nc1cc(Cl)c(Cc2cccc(C)c2)cc1Cl [Compound 141, N′-(2,5-dichloro-4-(3-methylbenzyl)phenyl)-N-ethyl-N-methylformimidamide] | > 75% | > 80% | > 75% | > 80% |
| CCN(C)C=Nc1cc(Cl)c(Cc2ccc(C)cc2)cc1Cl [Compound 147, N′-(2,5-dichloro-4-(4-methylbenzyl)phenyl)-N-ethyl-N-methylformimidamide] | – | > 80% | > 75% | – |
| CCN(C)C=Nc1cc(Cl)c(Cc2ccccc2Cl)cc1Cl [Compound 150, N′-(2,5-dichloro-4-(2-chlorobenzyl)phenyl)-N-ethyl-N-methylformimidamide] | > 75% | – | > 75% | – |
| CCN(C)C=Nc1cc(Cl)c(Cc2ccccc2C)cc1Cl [Compound 151, N′-(2,5-dichloro-4-(2-methylbenzyl)phenyl)-N-ethyl-N-methylformimidamide] | > 75% | > 80% | > 75% | > 80% |
| CCN(C)C=Nc1cc(C)c(C(C#N)c2ccc(C(F)(F)F)cc2)cc1Cl (stereo not shown) [Compound 187, N′-(2-chloro-4-(cyano(4-(trifluoromethyl)phenyl)methyl)-5-methylphenyl)-N-ethyl-N-methylformimidamide] | – | – | – | > 80% |
| CCN(C)C=Nc1cc(C)c(C(C#N)c2cccc(C(F)(F)F)c2)cc1Cl (stereo not shown) [Compound 188, N′-(2-chloro-4-(cyano(3-(trifluoromethyl)phenyl)methyl)-5-methylphenyl)-N-ethyl-N-methylformimidamide] | > 75% | – | – | > 80% |
| CCN(C)C=Nc1cc(C)c(C(C#N)c2ccc(F)c(Cl)c2)cc1Cl (stereo not shown) [Compound 190, N′-(2-chloro-4-((3-chloro-4-fluorophenyl)(cyano)methyl)-5-methylphenyl)-N-ethyl-N-methylformimidamide] | > 75% | – | – | > 80% |
| CCN(C)C=Nc1cc(C)c(C(C#N)c2ccc(C)cc2)cc1Cl (stereo not shown) [Compound 191, N′-(2-chloro-4-(cyano(p-tolyl)methyl)-5-methylphenyl)-N-ethyl-N-methylformimidamide] | – | > 80% | – | > 80% |
| CCN(C)C=Nc1cc(C)c(C(C#N)c2ccc(Cl)cc2)cc1Cl (stereo not shown) [Compound 193, N′-(2-chloro-4-((4-chlorophenyl)(cyano)methyl)-5-methylphenyl)-N-ethyl-N-methylformimidamide] | > 75% | > 80% | – | > 80% |

| SMILES | inhibition of growth at 300 ppm (Pyricularia oryzae) | inhibition of growth at 300 ppm (Rhizoctonia solani) | inhibition of growth at 300 ppm (Alternaria solani) | inhibition of growth at 300 ppm (Botrytis cinerea) |
| --- | --- | --- | --- | --- |
| CCN(C)C=Nc1cc(C)c(C(C#N)c2cccc(F)c2)cc1Cl (stereo not shown) [Compound 194, N′-(2-chloro-4-(cyano(3-fluorophenyl)methyl)-5-methylphenyl)-N-ethyl-N-methylformimidamide] | > 75% | – | – | – |
| CCN(C)C=Nc1cc(C)c(Cc2ccccn2)cc1C [Compound 202, N′-(2,5-dimethyl-4-(pyridin-2-ylmethyl)phenyl)-N-ethyl-N-methylformimidamide] | > 75% | – | > 75% | – |
| COC=Nc1c(C)cc(Cc2ccc(Br)cc2)c(C)c1Br [Compound 217, methyl N-(2-bromo-4-(4-bromobenzyl)-3,6-dimethylphenyl)formimidate] | – | – | – | > 80% |
| CCN(C)C=Nc1cc(C)c(Cc2cccc(Cl)c2)cc1S(C)(=O)=O [Compound 218, N′-(4-(3-chlorobenzyl)-5-methyl-2-(methylsulfonyl)phenyl)-N-ethyl-N-methylformimidamide] | – | – | > 75% | – |
| CCN(C)C=Nc1c(C)cc(Cc2ccccc2C)c(C)c1Br [Compound 219, N′-(2-bromo-3,6-dimethyl-4-(2-methylbenzyl)phenyl)-N-ethyl-N-methylformimidamide] | > 75% | – | > 75% | > 80% |
| CCN(C)C=Nc1cc(C(F)(F)F)c(Cc2ccccc2Cl)cc1F [Compound 226, N′-(4-(2-chlorobenzyl)-2-fluoro-5-(trifluoromethyl)phenyl)-N-ethyl-N-methylformimidamide] | > 75% | > 80% | > 75% | – |
| CCN(C)C=Nc1cc(C(F)(F)F)c(Cc2ccccc2F)cc1F [Compound 227, N-ethyl-N′-(2-fluoro-4-(2-fluorobenzyl)-5-(trifluoromethyl)phenyl)-N-methylformimidamide] | > 75% | > 80% | > 75% | – |
| CCN(C)C=Nc1cc(C(F)(F)F)c(Cc2cccc(C)c2)cc1F [Compound 231, N-ethyl-N′-(2-fluoro-4-(3-methylbenzyl)-5-(trifluoromethyl)phenyl)-N-methylformimidamide] | > 75% | > 80% | > 75% | – |
| CCN(C)C=Nc1cc(C(F)(F)F)c(Cc2cccc(OC(F)(F)F)c2)cc1F [Compound 233, N-ethyl-N′-(2-fluoro-4-(3-(trifluoromethoxy)benzyl)-5-(trifluoromethyl)phenyl)-N-methylformimidamide] | > 75% | – | > 75% | > 80% |
| CCN(C)C=Nc1cc(C)c(Cc2ccccc2C)cc1S(C)(=O)=O [Compound 234, N-ethyl-N-methyl-N′-(5-methyl-4-(2-methylbenzyl)-2-(methylsulfonyl)phenyl)formimidamide] | > 75% | – | > 75% | > 80% |
| CCN(C)C=Nc1cc(C)c(Cc2ccc(C)cc2)cc1S(C)(=O)=O [Compound 235, N-ethyl-N-methyl-N′-(5-methyl-4-(4-methylbenzyl)-2-(methylsulfonyl)phenyl)formimidamide] | – | – | – | > 80% |
| CCN(C)C=Nc1cc(Cl)c(C(C(=O)OC)c2cccc(Cl)c2)cc1C (stereo not shown) [Compound 237, methyl 2-(2-chloro-4-(((ethyl(methyl)amino)methylene)amino)-5-methylphenyl)-2-(3-chlorophenyl)acetate] | > 75% | – | > 75% | – |
| C=C(c1ccc(Br)cc1)c1cc(C)c(N=CN(C)CC)cc1Cl [Compound 238, N′-(4-(1-(4-bromophenyl)vinyl)-5-chloro-2-methylphenyl)-N-ethyl-N-methylformimidamide] | > 75% | – | > 75% | > 80% |
| CCN(C)C=Nc1cc(F)c(Cc2ccccc2F)cc1F [Compound 242, N′-(2,5-difluoro-4-(2-fluorobenzyl)phenyl)-N-ethyl-N-methylformimidamide] | > 75% | – | > 75% | > 80% |
| CCN(C)C=Nc1cc(C(F)(F)F)c(Cc2cccc(F)c2)cc1C1CC1 [Compound 266, N′-(2-cyclopropyl-4-(3-fluorobenzyl)-5-(trifluoromethyl)phenyl)-N-ethyl-N-methylformimidamide] | > 75% | – | > 75% | > 80% |
| CCN(C)C=Nc1cc(C)c(C(C#N)c2cccc(C(F)(F)F)c2)cc1Cl (stereo not shown) [Compound 272, N′-(2-chloro-4-(cyano(3-(trifluoromethyl)phenyl)methyl)-5-methylphenyl)-N-ethyl-N-methylformimidamide hydrochloride] | – | – | > 75% | – |
